Measured values taken from ChEMBL document CHEMBL1150977, “A quantitative analysis of kinase inhibitor selectivity” (Nat Biotechnol, 2008).

Tests used:
[1] = biological target: Mitogen-activated protein kinase 3 (Homo sapiens, UniProt P27361)
[2] = biological target: Phosphatidylinositol 4,5-bisphosphate 3-kinase catalytic subunit alpha isoform (Homo sapiens, UniProt P42336, E545K)
[3] = biological target: T1, Dual specificity mitogen-activated protein kinase kinase 6 (Homo sapiens, UniProt P52564)
T1 sequence (P52564 whole entry): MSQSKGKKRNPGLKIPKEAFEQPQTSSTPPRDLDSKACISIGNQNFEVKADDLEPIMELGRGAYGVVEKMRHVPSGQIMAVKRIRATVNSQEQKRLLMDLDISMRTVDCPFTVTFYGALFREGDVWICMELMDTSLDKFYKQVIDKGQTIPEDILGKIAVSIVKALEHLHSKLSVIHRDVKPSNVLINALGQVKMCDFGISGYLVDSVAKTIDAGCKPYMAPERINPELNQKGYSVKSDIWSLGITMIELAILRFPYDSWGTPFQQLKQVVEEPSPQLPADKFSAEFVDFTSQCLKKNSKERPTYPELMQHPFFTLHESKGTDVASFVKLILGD

[4] = biological target: Serine/threonine-protein kinase MRCK beta (Homo sapiens, UniProt Q9Y5S2)
[5] = biological target: T2, Serine/threonine-protein kinase Chk1 (Homo sapiens, UniProt O14757)
T2 sequence (O14757 whole entry): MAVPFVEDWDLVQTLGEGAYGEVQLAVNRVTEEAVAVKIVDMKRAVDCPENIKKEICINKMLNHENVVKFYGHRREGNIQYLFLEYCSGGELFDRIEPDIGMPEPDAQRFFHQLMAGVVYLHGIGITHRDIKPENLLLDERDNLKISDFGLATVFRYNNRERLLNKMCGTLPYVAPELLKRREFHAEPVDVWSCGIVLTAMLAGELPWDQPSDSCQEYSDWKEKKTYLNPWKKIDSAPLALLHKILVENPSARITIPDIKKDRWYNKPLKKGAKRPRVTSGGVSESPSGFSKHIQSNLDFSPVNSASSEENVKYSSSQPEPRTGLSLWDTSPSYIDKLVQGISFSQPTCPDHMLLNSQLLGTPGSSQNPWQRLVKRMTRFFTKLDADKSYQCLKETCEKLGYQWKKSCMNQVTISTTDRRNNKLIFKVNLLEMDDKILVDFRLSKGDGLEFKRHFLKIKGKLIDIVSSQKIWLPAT

[6] = biological target: Mast/stem cell growth factor receptor Kit (Homo sapiens, UniProt P10721)
Chain of Mast/stem cell growth factor receptor Kit (P10721 whole entry): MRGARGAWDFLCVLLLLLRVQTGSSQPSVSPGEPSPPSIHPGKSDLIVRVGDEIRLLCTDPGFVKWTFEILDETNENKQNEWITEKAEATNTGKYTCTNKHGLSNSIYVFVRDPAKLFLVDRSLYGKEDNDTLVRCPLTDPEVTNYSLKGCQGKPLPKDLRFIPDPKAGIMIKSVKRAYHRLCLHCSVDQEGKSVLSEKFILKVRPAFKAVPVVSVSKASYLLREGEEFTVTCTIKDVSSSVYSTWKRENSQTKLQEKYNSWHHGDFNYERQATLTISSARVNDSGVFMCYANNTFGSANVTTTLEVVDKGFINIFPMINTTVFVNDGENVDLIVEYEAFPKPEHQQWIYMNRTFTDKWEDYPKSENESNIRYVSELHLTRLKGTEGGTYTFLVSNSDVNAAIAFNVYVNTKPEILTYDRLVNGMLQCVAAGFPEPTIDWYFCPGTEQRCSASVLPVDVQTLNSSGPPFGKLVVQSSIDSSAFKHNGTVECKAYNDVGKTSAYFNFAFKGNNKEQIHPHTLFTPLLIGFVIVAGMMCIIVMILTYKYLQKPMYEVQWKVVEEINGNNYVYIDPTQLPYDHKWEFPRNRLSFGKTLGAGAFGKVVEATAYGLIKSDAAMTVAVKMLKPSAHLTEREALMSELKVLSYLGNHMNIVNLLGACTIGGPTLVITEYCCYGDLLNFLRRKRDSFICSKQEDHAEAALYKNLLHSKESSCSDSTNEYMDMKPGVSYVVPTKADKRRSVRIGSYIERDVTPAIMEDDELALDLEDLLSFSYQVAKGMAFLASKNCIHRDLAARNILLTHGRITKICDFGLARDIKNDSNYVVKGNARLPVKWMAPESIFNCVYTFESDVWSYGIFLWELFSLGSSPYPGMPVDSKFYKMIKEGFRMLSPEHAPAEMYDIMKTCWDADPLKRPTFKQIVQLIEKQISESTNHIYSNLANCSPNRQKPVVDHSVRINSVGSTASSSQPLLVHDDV

[7] = biological target: T3, Serine/threonine-protein kinase LATS2 (Homo sapiens, UniProt Q9NRM7)
T3 sequence (Q9NRM7 whole entry): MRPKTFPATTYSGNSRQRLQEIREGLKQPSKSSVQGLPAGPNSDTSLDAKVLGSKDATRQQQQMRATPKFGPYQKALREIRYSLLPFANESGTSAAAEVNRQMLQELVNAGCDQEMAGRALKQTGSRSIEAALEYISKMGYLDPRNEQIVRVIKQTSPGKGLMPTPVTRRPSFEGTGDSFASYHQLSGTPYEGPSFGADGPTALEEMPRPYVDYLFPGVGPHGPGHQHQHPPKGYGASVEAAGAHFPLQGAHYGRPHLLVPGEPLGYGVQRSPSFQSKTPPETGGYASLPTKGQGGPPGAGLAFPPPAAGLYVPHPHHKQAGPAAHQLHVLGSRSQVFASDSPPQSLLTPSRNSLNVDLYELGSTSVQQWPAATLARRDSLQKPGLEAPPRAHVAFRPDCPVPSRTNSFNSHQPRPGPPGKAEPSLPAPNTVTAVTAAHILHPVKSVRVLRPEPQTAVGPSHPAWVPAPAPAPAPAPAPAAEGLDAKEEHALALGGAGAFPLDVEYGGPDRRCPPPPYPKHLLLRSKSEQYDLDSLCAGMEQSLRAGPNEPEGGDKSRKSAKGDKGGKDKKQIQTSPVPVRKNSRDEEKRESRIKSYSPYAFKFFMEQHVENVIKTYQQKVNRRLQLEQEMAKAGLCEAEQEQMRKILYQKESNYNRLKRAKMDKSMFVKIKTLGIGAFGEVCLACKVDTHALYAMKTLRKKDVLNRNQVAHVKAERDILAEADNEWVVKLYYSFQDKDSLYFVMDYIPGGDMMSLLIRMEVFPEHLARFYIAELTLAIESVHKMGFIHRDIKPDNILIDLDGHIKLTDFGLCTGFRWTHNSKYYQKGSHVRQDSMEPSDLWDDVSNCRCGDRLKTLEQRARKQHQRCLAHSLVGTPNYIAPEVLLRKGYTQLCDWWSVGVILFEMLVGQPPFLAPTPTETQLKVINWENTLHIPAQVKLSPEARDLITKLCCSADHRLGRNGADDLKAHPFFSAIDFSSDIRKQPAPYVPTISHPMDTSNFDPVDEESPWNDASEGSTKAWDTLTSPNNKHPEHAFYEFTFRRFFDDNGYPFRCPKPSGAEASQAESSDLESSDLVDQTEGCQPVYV

[8] = biological target: Mitogen-activated protein kinase kinase kinase kinase 5 (Homo sapiens, UniProt Q9Y4K4)
[9] = biological target: T4, Serine/threonine-protein kinase RIO3 (Homo sapiens, UniProt O14730)
T4 sequence (O14730 whole entry): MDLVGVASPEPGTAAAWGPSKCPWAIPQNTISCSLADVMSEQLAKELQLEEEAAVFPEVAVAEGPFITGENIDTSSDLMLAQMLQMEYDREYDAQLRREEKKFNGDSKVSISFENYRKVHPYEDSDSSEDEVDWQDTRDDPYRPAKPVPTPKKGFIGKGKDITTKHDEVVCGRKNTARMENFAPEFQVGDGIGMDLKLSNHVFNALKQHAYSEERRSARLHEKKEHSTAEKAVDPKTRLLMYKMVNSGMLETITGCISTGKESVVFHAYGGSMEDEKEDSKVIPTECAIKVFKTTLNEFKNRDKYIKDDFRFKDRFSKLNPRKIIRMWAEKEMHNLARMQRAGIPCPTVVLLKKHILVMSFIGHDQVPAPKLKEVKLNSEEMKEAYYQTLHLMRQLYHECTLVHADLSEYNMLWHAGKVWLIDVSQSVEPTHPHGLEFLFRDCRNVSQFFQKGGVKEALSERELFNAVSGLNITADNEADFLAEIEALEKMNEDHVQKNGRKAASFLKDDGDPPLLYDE

[10] = biological target: Interferon-induced, double-stranded RNA-activated protein kinase (Homo sapiens, UniProt P19525)
Chain of Interferon-induced, double-stranded RNA-activated protein kinase (P19525 whole entry): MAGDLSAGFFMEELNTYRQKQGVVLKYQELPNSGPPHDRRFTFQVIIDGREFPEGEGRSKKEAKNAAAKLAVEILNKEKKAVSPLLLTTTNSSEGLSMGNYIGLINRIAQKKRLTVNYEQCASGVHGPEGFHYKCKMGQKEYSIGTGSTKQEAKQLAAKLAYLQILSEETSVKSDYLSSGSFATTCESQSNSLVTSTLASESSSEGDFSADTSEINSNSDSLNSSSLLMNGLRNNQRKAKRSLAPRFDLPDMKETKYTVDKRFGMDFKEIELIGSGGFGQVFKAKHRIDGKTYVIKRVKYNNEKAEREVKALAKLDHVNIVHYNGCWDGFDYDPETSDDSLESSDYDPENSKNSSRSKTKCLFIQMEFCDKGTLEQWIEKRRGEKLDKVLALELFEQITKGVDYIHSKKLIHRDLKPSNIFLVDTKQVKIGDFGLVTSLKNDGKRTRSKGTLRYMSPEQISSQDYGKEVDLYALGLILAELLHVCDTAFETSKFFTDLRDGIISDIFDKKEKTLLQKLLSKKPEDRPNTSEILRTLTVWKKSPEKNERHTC

[11] = biological target: Bone morphogenetic protein receptor type-1A (Homo sapiens, UniProt P36894)
Chain of Bone morphogenetic protein receptor type-1A (P36894 whole entry): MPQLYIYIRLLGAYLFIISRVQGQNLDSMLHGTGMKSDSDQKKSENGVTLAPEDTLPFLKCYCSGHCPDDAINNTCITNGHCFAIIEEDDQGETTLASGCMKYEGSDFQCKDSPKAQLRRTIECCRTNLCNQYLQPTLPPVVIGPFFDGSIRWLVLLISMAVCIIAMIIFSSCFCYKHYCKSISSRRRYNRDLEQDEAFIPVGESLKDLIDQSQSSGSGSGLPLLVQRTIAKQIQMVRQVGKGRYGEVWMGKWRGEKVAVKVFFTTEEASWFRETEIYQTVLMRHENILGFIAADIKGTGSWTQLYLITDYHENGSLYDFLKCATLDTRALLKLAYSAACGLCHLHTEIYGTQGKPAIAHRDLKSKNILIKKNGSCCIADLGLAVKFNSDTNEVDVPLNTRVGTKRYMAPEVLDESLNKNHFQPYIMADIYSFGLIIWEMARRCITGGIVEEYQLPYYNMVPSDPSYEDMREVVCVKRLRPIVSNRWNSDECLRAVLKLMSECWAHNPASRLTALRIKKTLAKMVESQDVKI

[12] = biological target: Mitogen-activated protein kinase kinase kinase kinase 4 (Homo sapiens, UniProt O95819)
Chain of Mitogen-activated protein kinase kinase kinase kinase 4 (O95819 whole entry): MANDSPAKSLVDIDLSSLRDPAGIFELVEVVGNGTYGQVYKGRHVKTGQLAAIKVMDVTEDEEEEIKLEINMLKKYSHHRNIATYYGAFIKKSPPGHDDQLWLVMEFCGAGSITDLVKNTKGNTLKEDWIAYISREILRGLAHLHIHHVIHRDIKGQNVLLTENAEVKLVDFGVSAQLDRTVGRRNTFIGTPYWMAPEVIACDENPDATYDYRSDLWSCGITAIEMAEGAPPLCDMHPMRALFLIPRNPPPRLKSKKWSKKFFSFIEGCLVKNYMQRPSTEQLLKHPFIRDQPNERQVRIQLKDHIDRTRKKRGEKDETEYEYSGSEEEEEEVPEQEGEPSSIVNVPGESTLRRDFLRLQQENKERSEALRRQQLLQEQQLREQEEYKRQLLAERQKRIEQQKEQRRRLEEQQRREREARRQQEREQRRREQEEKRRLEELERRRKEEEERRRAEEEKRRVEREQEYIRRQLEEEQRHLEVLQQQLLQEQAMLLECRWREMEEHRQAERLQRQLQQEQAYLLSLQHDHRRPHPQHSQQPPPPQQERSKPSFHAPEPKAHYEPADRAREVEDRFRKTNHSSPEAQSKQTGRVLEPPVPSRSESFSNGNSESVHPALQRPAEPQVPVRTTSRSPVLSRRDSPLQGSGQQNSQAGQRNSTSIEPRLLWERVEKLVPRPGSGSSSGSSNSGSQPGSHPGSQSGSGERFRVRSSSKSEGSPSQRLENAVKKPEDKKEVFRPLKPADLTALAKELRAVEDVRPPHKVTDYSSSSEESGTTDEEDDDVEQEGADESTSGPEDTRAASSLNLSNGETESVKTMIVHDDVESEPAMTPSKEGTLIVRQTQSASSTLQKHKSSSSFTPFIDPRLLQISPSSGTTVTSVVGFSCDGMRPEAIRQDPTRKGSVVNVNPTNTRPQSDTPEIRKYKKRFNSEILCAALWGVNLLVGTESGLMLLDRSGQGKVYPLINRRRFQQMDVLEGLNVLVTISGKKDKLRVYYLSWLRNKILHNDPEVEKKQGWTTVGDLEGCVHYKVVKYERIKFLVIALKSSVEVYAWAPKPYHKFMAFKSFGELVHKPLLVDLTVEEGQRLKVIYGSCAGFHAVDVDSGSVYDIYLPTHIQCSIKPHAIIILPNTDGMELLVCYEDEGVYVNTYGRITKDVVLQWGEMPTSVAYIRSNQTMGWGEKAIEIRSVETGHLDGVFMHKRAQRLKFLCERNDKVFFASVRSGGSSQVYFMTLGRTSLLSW

Chain of Phosphatidylinositol 4,5-bisphosphate 3-kinase catalytic subunit alpha isoform (P42336 whole entry E545K, canonical isoform): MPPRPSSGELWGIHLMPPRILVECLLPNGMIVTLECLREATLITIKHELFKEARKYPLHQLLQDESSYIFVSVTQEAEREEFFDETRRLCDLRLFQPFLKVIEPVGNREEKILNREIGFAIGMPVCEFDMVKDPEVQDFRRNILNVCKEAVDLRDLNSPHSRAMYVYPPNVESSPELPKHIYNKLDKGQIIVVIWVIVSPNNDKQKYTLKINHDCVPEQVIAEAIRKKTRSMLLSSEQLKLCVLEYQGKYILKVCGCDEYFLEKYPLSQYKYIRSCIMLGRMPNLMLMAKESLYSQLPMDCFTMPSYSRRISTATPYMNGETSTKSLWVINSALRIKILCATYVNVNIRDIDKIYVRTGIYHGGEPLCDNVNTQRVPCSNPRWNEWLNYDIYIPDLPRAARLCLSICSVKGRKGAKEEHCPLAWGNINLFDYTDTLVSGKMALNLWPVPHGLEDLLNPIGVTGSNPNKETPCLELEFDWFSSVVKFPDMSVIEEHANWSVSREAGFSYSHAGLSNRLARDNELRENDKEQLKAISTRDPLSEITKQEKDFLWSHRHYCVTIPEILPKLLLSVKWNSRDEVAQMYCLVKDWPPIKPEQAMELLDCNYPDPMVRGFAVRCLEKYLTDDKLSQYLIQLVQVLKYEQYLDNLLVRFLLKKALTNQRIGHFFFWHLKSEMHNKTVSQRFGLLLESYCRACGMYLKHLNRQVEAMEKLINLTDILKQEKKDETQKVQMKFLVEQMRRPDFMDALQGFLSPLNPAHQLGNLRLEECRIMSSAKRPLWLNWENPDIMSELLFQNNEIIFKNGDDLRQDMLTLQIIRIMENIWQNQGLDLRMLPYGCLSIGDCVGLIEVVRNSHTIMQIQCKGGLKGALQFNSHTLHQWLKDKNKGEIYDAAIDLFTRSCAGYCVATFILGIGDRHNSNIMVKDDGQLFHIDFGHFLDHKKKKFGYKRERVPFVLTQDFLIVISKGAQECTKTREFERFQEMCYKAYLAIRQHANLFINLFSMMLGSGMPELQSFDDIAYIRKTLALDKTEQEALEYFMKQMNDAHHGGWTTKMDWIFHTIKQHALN
Chain of Mitogen-activated protein kinase 3 (P27361 whole entry, canonical isoform): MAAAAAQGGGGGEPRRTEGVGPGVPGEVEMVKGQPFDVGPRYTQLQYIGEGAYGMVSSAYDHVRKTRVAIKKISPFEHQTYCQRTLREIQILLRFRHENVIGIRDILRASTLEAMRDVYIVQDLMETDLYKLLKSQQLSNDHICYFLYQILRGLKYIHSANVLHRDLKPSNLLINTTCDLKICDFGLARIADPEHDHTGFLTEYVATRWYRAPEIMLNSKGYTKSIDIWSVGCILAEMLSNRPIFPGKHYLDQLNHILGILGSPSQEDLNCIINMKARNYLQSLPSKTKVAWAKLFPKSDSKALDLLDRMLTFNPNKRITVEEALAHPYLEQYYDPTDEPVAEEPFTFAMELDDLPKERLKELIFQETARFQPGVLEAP

Row | SMILES | Kd [1] [µM] | Kd [2] [µM] | Kd [3] [µM] | Kd [4] [µM] | Kd [5] [µM] | Kd [6] [µM] | Kd [7] [µM] | Kd [8] [µM] | Kd [9] [µM] | Kd [10] [µM] | Kd [11] [µM] | Kd [12] [µM]
1 | CCOc1cc2ncc(C#N)c(Nc3ccc(F)c(Cl)c3)c2cc1NC(=O)/C=C/CN(C)C [PELITINIB] | > 10 | > 10 | > 10 | > 10 | 1.9 | > 10 | > 10 | 0.01 | > 10 | 1.9 | > 10 | –
2 | COCC(=O)NC/C=C/c1ccc2ncnc(Nc3ccc(Oc4ccc(C)nc4)c(C)c3)c2c1 [CP-724714] | > 10 | – | > 10 | > 10 | > 10 | > 10 | > 10 | > 10 | > 10 | > 10 | > 10 | > 10
3 | NC(=O)c1ccc(-c2nc(-c3ccc4c(c3)OCO4)c(-c3ccccn3)[nH]2)cc1 [SB-431542] | > 10 | > 10 | > 10 | > 10 | > 10 | > 10 | > 10 | > 10 | > 10 | > 10 | > 10 | > 10
4 | Nc1nc(Nc2ccc(S(N)(=O)=O)cc2)nn1C(=O)c1c(F)cccc1F [JNJ-7706621] | – | > 10 | – | > 10 | – | – | – | – | 1.2 | – | > 10 | –
5 | Oc1ccc(-c2nc(-c3ccncc3)c(-c3ccc(F)cc3)[nH]2)cc1 [SB-202190] | > 10 | > 10 | > 10 | 4.2 | > 10 | > 10 | – | > 10 | > 10 | > 10 | > 10 | > 10
